Experimental data published in ChEMBL document CHEMBL1157539, “Thousands of chemical starting points for antimalarial lead identification” (Nature, 2010).

Tested on: Plasmodium falciparum
Experiment: GSK_TCMDC: Inhibition of Plasmodium falciparum 3D7 in whole erythrocytes, using parasite LDH activity as an index of growth.
Type: functional, organism-based
Settings: Plasmodium falciparum, 3D7

Row | Structure (SMILES) | XC50 [nM]
1 | CCCCC(NCC)c1ccc(OCCOc2ccc(C(CCCC)NCC)cc2)cc1 (stereo not given) | 930
2 | Cc1[nH]cnc1CSCCN/C(=N\C#N)NCCCCCCCCN/C(=N/C#N)NCCSCc1nc[nH]c1C | 1270
3 | Cc1ccc(NC(=O)c2ccc(CN3CCCN(CC4CCCCC4)CC3)cc2)cc1 | 797
4 | COc1ccc(-c2cnc3[nH]cc(-c4ccc(CCC(=O)O)cc4)c3c2)cn1 | 773
5 | COc1cc(NC(=O)/C=C/c2ccccc2Cl)cc(OCCN2CCC(O)(c3ccccc3)CC2)c1 | 174
6 | N#Cc1cccc(NC(=O)NC2CCN(CCCCCNC(=O)/C=C/c3ccc(Cl)c(Cl)c3)CC2)c1 | 707
7 | CCc1ccccc1N1CCN(CCCCNC(=O)c2ccc(NC(=O)c3ccc(Cl)cc3)cc2)CC1 | 960
8 | COc1ccc(N2CCN(CCCCNC(=O)c3ccc(NC(=O)c4ccc(Cl)cc4)cc3)CC2)c(OC)c1 | 951
9 | N=C(N)NCCN(Cc1ccccc1)c1ccccc1 | 345
10 | COc1ccc(Nc2nccc(N3CCC(NC(=O)c4cccc(NC(C)=O)c4)C3)n2)cc1 (stereo not given) | 994
11 | Cc1c(C(=O)N2CCCC(C(F)(F)F)C2)sc2cccc(F)c12 (stereo not given) | 599
12 | CS(=O)(=O)N1CC2(CCN(CCC(NC(=S)Nc3ccccc3)c3ccc(Cl)c(Cl)c3)CC2)c2ccccc21 (stereo not given) | 826
13 | Oc1ccccc1Nc1nc(NCc2ccco2)c2ccccc2n1 | 644
14 | COc1ccc2nc(-c3ccc(C(=O)NCCCN4CCN(c5cc(Cl)ccc5OC)CC4)cc3)[nH]c2c1 | 772
15 | Cc1cc(O)c(-c2ccc(Sc3ccc(Cl)cc3)cc2)c(C)n1 | 969
16 | Cc1ccc(NC(=O)c2ccc(CN3CCCN(CC4CCCCC4)CC3)cc2)cc1C | 1020
17 | CN(C)Cc1c(O)ccc2[nH]c(-c3cccc(F)c3)nc12 | 1000
18 | CC(=O)N1N=C(c2ccc(F)cc2)Sc2c1nc(C1CCCCC1)n2C(C)=O | 891
19 | CCc1ccc(C2CCN(CCCCNC(=O)c3ccc(-c4ccc(Cl)cc4)cc3)CC2)c(O)c1 | 891
20 | Cc1ccc(C(=O)Nc2cccc(-c3ccc(N4CCN(C)CC4)nn3)c2)cc1[N+](=O)[O-] | 334
21 | Nc1nc(N)c2cc(NS(=O)(=O)c3ccc(-c4ccccc4)cc3)ccc2n1 | 699
22 | CC(C)(C)CCN1CCC(NC(=O)c2ccc(-c3cccc(C(F)(F)F)c3)s2)CC1 | 755
23 | Cc1ccc(F)c(NC(=O)c2c(-c3c(F)cccc3Cl)noc2C)c1 | 934
24 | CN(C)c1cccc2c(S(=O)(=O)Nc3cccc(CCN4CCC(N5CCCCC5)CC4)c3)cccc12 | 979

Row | Structure (SMILES) | XC50 [nM]
25 | CN1CCc2ccc(NC(=O)Nc3cccc([N+](=O)[O-])c3)cc2C1 | 1100
26 | O=C(Nc1cccc(Cl)c1Cl)NC1CCN(Cc2cccc(O)c2)CC1 | 799
27 | O=c1cc(NCCCNCc2cc(Br)ccc2F)[nH]c2ccccc12 | 854
28 | O=C(Nc1ccc(Cl)cc1)Nc1cccc(-c2cccc(-c3nc4cc(F)ccc4[nH]3)c2)c1 | 220
29 | Cc1cccc(CNc2nc(C)cc(NCCC(=O)Nc3ccccc3)n2)c1 | 1050
30 | CCCCOc1cc(CNCCCCCCNCc2cc(OCCCC)cc3ccccc23)c2ccccc2c1 | 736
31 | C[C@H](Cc1ccc(OCCNC[C@H](O)c2cccc(Cl)c2)cc1)NC[C@H](O)c1ccc(Cl)c(Cl)c1 | 958
32 | CO/C(=C\C=C\c1cc2cc(Cl)ccc2[nH]1)C(=O)NCCCN1CCN(c2cc(Cl)ccc2OC)CC1 | 877
33 | O=[N+]([O-])c1cccc(Nc2nccc(-c3cnn4ncccc34)n2)c1 | 184
34 | Cc1cc(-c2cnc(N)c(-c3ccc(N4CCN(C)CC4)cc3)c2)cc(C)c1O | 1170
35 | COc1cc2nccc(Nc3ccc(Oc4ccccc4)cc3)c2cc1OC | 684
36 | COc1ccc(C(=O)N2CCC3(CC2)C(=O)N(CC(=O)NCC2CCCCC2)CN3c2ccccc2)c(OC)c1 | 119
37 | O=C(NCCSCc1c(F)cccc1Cl)c1cnc2c(c1)nc(-c1c[nH]c(-c3ccccc3)n1)n2CCc1c[nH]cn1 | 807
38 | COc1ccc(Br)cc1/C=C/C(=O)Nc1cccc(C2CCCN(C)C2)c1 (stereo not given) | 892
39 | O=C(Nc1cccc(CN2CCCN(Cc3ccc(O)cc3)CC2)c1)c1cc2ccccc2o1 | 1200
40 | CC(Cc1ccc(SCCSc2ccccc2)cc1)NCC(O)c1cccc(Cl)c1 (stereo not given) | 367
41 | O=C(Nc1cccc(CN2CCN(Cc3cccc(O)c3)CC2)c1)c1ccc(Cl)c(Cl)c1 | 411
42 | CCCCOC(=O)NCCCC[C@H](NC(=O)OC(C)(C)C)C(=O)N[C@H](C(=O)OC(c1ccccc1)c1ccccc1)[C@H]1O[C@@H](n2ccc(=O)[nH]c2=O)[C@@H]2OC(C)(C)O[C@@H]21 | 1090
43 | Cc1cc(N2CCCC2)nc(Nc2ccc(NC(=O)C(C)(C)C)cc2)n1 | 1070
44 | Cc1ccc(-n2ncc(C(=O)Nc3cc(Cl)cc(Cl)c3)c2C2CCNCC2)cc1C | 551
45 | O=C(/C=C/c1cccs1)NC1CCC(CN2CCC(c3c[nH]c4ccccc34)CC2)CC1 (stereo not given) | 1050
46 | O=C(Nc1ccsc1)Nc1cccc(-c2cccc(-c3nc4cc(F)ccc4[nH]3)c2)c1 | 199
47 | C=C[C@H]1CN2CC[C@H]1C[C@H]2[C@H](O)c1ccnc2ccc(OC)cc12 | 426
48 | CCNc1cc(C(=O)N[C@@H](Cc2ccc(F)c(F)c2)[C@H](O)CNCc2cccc(OC)c2)cc(N2CCCCS2(=O)=O)c1 | 749

Row | Structure (SMILES) | XC50 [nM]
49 | Cc1ccoc1C(=O)Nc1cccc(-c2cccc(-c3nc4cccc(C)c4[nH]3)c2)c1 | 675
50 | CN(C)CCN(C)Cc1ccc(-c2ccc3c(Nc4ccc(Oc5ccccn5)cc4)ccnc3c2)o1 | 424
51 | Cc1c(C)c2c(c(C)c1O)CC[C@](C)(C(=O)N1CCC(CCN3CCC(c4c[nH]c5ccccc45)CC3)CC1)O2 | 834
52 | O=C(NCC1CCN(C/C=C/c2ccccc2)CC1)Nc1ccc(Oc2ccccc2)cc1 | 1040
53 | Cc1ccc(Nc2nc(C)cc(NC3CC3)n2)cc1 | 1220
54 | CC(Nc1ccc2c(c1)OCCO2)C(=O)Nc1cc(C(F)(F)F)ccc1N1CCOCC1 (stereo not given) | 408
55 | COc1ccc(NC(=O)C2CCN(CCCCCNC(=O)/C=C/c3ccc(Cl)c(Cl)c3)CC2)cc1 | 828
56 | COc1ccc(C=NN=c2c3ccccc3[nH]c3ccccc23)c2ccccc12 | 1130
57 | O=C(Nc1cccc(C(F)(F)F)c1)c1ccc(S(=O)(=O)NC2CCN(CC3CCCCC3)C2)cc1 (stereo not given) | 789
58 | CC(C)(C)COc1ccc2c(N)n[nH]c2c1 | 789
59 | COc1ccc(CNCCc2cccs2)cc1-c1ccc(S(=O)(=O)NCCN2CCCC2)s1 | 877
60 | O=C(CSc1nc2ccccc2c(=O)n1C1CC1)Nc1cc(C(F)(F)F)ccc1Cl | 108
61 | COc1ccc(CCc2ccc(-c3c(C)[nH]c(C)c(Cl)c3=O)cc2)cc1OC | 94
62 | COCCOc1cccc(CN2CCC(c3cc4nc(C)cc(C(F)(F)F)n4n3)C2)c1 (stereo not given) | 1330
63 | COC(=O)c1ccc(NC(=O)c2ccc(CCN3CCC(c4nc(COCC(F)(F)F)c(-c5ccc(F)cc5)o4)CC3)cc2)cc1 | 1040
64 | COc1ccccc1C1CC(c2ccc(Br)cc2)=NN1C(=O)c1ccccc1 (stereo not given) | 1110
65 | CC(C)Oc1cc2c(cc1NS(=O)(=O)c1ccc(-c3ccc(Cl)cc3)cc1)CCN(C)CC2 | 1040
66 | COc1ccc(-c2cnc3[nH]cc(-c4ccncc4)c3c2)cc1OC | 126
67 | O=C(Nc1ccc(Cn2ncc(N3CCCNCC3)c(Cl)c2=O)cc1)Nc1ccc(SC(F)(F)F)cc1 | 529
68 | CCCCCCNC[C@@H](O)[C@H](Cc1ccccc1)NC(=O)c1cc(NCC)cc(N2CCCCS2(=O)=O)c1 | 995
69 | COc1c(C2CCN(CCCCNC(=O)c3cc(-c4ccc(Cl)cc4)[nH]c3C)CC2)ccc2c1CCCC2 | 970
70 | CC(C)(C)NS(=O)(=O)c1cc(C(=O)N2CCC(CCN3CCC(C(=O)c4ccc(F)cc4)CC3)(c3cccc(F)c3)CC2)c(Cl)cc1F | 746
71 | COc1cc(NC(=O)c2c(-c3c(Cl)cccc3Cl)noc2C)c(OC)cc1Cl | 916
72 | Cc1noc(C)c1-c1ccc2c(Nc3ccc([N+](=O)[O-])cc3)c(C(N)=O)cnc2c1 | 692

Row | Structure (SMILES) | XC50 [nM]
73 | Nc1nc(N)c2c(CCc3ccc4ccccc4c3)cccc2n1 | 693
74 | CC1CCCN(c2ccc(NC(=O)c3cccs3)cc2[N+](=O)[O-])C1 (stereo not given) | 669
75 | CN1CC=C(c2c[nH]c3ccc(OC(=O)c4ccccc4)cc23)C1 | 800
76 | CN(C)CCOc1cccc(NC(=O)Nc2ccc(-c3ccccc3)cc2)c1 | 878
77 | O=C(NCc1ccco1)c1ccc(S(=O)(=O)c2ccc(Cl)cc2)cc1 | 448
78 | O=C(Nc1cccc(CN2CCN(C(=O)c3cccc(Cl)c3)CC2)c1)c1ccco1 | 438
79 | CCn1c(-c2nonc2N)nc2c(-c3cccc(NC(=O)Nc4ccc(C(F)(F)F)cc4)c3)ncc(OCCCN)c21 | 1050
80 | COc1ccc(-c2onc(C(F)(F)F)c2-c2cc3ccccc3o2)c(O)c1 | 863
81 | Cc1cccc2nc(-c3ccc(-c4ccc(NC(=O)NCc5cccc(F)c5)cc4)s3)[nH]c12 | 887
82 | O=C(COc1ccc(Cl)c(Cl)c1)NCCCCCN1CCCN(C(=O)Nc2ccc(Cl)c(Cl)c2)CC1 | 1730
83 | COc1ccc2c(OC)cccc2c1CNCCCCCCNCc1c(OC)ccc2c(OC)cccc12 | 686
84 | CCCOc1ccc(-c2nonc2NC(=O)c2ccccc2OC)cc1OCCC | 858
85 | CCc1cc2c3c(N)nc(N)nc3ccc2n1C(C)CC (stereo not given) | 3.2
86 | c1ccc2c(c1)CN(Cc1ccsc1)CC1(CCN(Cc3c[nH]c4cnccc34)CC1)O2 | 1150
87 | CCN(CC)CCCNC(=O)/C(=C/C=C/c1cc2cc(Cl)c(Cl)cc2[nH]1)OC | 1160
88 | CN1CCC(N(Cc2ccc(-c3ccc(C(F)(F)F)cc3)cc2)C(=O)Cn2cc(Cc3cnn(C)c3)c(=O)nc2SCc2cccc(F)c2F)CC1 | 933
89 | CC(=O)Nc1ccc(CN2CCC(NC(=O)c3ccc(-c4cccc(C(F)(F)F)c4)s3)CC2)cc1 | 890
90 | Fc1ccc(Nc2ccnc3cc(-c4ccc(CNCCN5CCOCC5)o4)ccc23)c(Cl)c1 | 186
91 | CN1CCN(Cc2ccc(-c3ccc4ncnc(Nc5ccc(OCc6ccccc6)cc5)c4c3)o2)CC1 | 689
92 | CCC[C@@H]([C@@H](CC1CCCCC1)C(=O)NC(C(=O)Nc1nccs1)C(CC)c1ccccc1)N(O)C=O (stereo not given in full) | 689
93 | O=C(NCc1cccc(C(F)(F)F)c1)C1CCCN(C(=O)c2ccc(O)c(-c3ccc(Cl)c(Cl)c3)c2)C1 (stereo not given) | 804
94 | CNC(=O)C1Cc2c([nH]c3c(C)cccc23)C2(N1)C(=O)Nc1ccc(OC(F)(F)F)cc12 (stereo not given) | 464
95 | CCn1c(-c2nc(-c3ccnc(N4CCN(C)CC4)c3)cnc2N)nc2cc(S(C)(=O)=O)ccc21 | 815
